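Results reflect a 48-hour exposure of cells in 96-well plates to compound at five concentrations. Here, GI50 denotes the concentration required for 50% inhibition of growth.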 The source made the active and inactive calls. Rule as the data show it: active = GI50 up to about 1.1 µM and inactive = higher.
Tests used:
Experiment in all cases: NCI-60 cell line screen, 48 h
SW-620 = system: SW-620
HOP-18 = system: HOP-18
SF-295 = system: SF-295
HOP-92 = system: HOP-92
XF498 = system: XF498
EKVX = system: EKVX
SK-MEL-5 = system: SK-MEL-5
HOP-62 = system: HOP-62
MCF7 = system: MCF7
SNB-19 = system: SNB-19
HT-29 = system: HT-29
SNB-78 = system: SNB-78
SK-MEL-2 = system: SK-MEL-2
LOX IMVI = system: LOX IMVI
NCI-H226 = system: NCI-H226
HCT-15 = system: HCT-15
DMS-114 = system: DMS-114
NCI-H522 = system: NCI-H522
SF-268 = system: SF-268
OVCAR-5 = system: OVCAR-5
UACC-62 = system: UACC-62
CAKI-1 = system: CAKI-1
IGROV-1 = system: IGROV-1
NCI/ADR-RES = system: NCI/ADR-RES
UACC-257 = system: UACC-257
HCC 2998 = system: HCC 2998
RPMI-8226 = system: RPMI-8226
COLO 205 = system: COLO 205
HL-60 = system: HL-60
UO-31 = system: UO-31
NCI-H23 = system: NCI-H23
OVCAR-8 = system: OVCAR-8
SK-OV-3 = system: SK-OV-3
HCT-116 = system: HCT-116
NCI-H460 = system: NCI-H460
CCRF-CEM = system: CCRF-CEM
KM12 = system: KM12
KM-20L2 = system: KM-20L2
OVCAR-4 = system: OVCAR-4
A498 = system: A498
DMS-273 = system: DMS-273
OVCAR-3 = system: OVCAR-3
DLD-1 = system: DLD-1
MOLT-4 = system: MOLT-4
U-251 = system: U-251
A549 = system: A549
Malme-3M = system: Malme-3M
SN12C = system: SN12C
SK-MEL-28 = system: SK-MEL-28
SNB-75 = system: SNB-75
RXF 393 = system: RXF 393
SF-539 = system: SF-539
M19-MEL = system: M19-MEL
K562 = system: K562
M14 = system: M14
ACHN = system: ACHN
TK-10 = system: TK-10
LXFL 529 = system: LXFL 529
786-0 = system: 786-0
SR = system: SR

Measured: GI50

CC1=CC2c3cccc4[nH]cc(c34)CC2N(C)C1 (configuration not stated)
inactive: SW-620 > 100 µM | HOP-18 23.4 µM | SF-295 53.3 µM | HOP-92 24.4 µM | XF498 9.75 µM | EKVX > 100 µM | SK-MEL-5 > 76.9 µM | HOP-62 15.8 µM | MCF7 95.1 µM | SNB-19 > 100 µM | HT-29 49.4 µM | SNB-78 > 100 µM | SK-MEL-2 > 100 µM | LOX IMVI 70.8 µM | NCI-H226 > 100 µM | DMS-114 51.2 µM | NCI-H522 > 100 µM | SF-268 > 100 µM | OVCAR-5 > 100 µM | UACC-62 > 91.8 µM | CAKI-1 66.7 µM | IGROV-1 > 100 µM | NCI/ADR-RES > 100 µM | UACC-257 22.4 µM | HCC 2998 25.5 µM | RPMI-8226 > 100 µM | COLO 205 55.6 µM | HL-60 31.6 µM | UO-31 11.9 µM | NCI-H23 > 100 µM | OVCAR-8 > 100 µM | SK-OV-3 > 100 µM | HCT-116 > 100 µM | NCI-H460 56.5 µM | CCRF-CEM > 91.6 µM | KM12 > 100 µM | KM-20L2 > 76.2 µM | OVCAR-4 > 100 µM | A498 > 76.6 µM | DMS-273 > 100 µM | OVCAR-3 > 100 µM | DLD-1 > 37.8 µM | MOLT-4 > 68.1 µM | U-251 > 100 µM | A549 > 100 µM | Malme-3M 30.3 µM | SN12C > 89.5 µM | SK-MEL-28 > 100 µM | SNB-75 38.5 µM | RXF 393 > 100 µM | SF-539 > 100 µM | M19-MEL > 100 µM | K562 32.7 µM
> 100 µM: HCT-15

CS/C(c1ccccc1)=[N+](\[O-])Cc1ccccc1
16.7 µM: HCT-15
inactive: HOP-18 > 100 µM | SF-295 > 100 µM | HOP-92 > 100 µM | XF498 > 100 µM | EKVX > 100 µM | SK-MEL-5 > 100 µM | HOP-62 > 100 µM | M14 > 100 µM | ACHN > 100 µM | SNB-19 > 100 µM | HT-29 50.7 µM | SNB-78 > 100 µM | SK-MEL-2 > 100 µM | LOX IMVI 16.4 µM | NCI-H226 > 100 µM | TK-10 > 100 µM | DMS-114 45.9 µM | LXFL 529 > 100 µM | NCI-H522 90.2 µM | SF-268 > 100 µM | 786-0 > 100 µM | OVCAR-5 > 100 µM | UACC-62 > 100 µM | CAKI-1 > 100 µM | IGROV-1 > 100 µM | UACC-257 > 100 µM | HCC 2998 > 100 µM | RPMI-8226 27.1 µM | COLO 205 > 100 µM | HL-60 > 100 µM | UO-31 > 100 µM | NCI-H23 > 100 µM | OVCAR-8 > 100 µM | SK-OV-3 > 100 µM | HCT-116 > 100 µM | NCI-H460 33.6 µM | SR 20 µM | CCRF-CEM 39.4 µM | KM12 > 100 µM | KM-20L2 > 100 µM | OVCAR-4 > 100 µM | A498 > 100 µM | OVCAR-3 > 100 µM | DLD-1 > 100 µM | MOLT-4 > 100 µM | U-251 > 100 µM | A549 > 100 µM | Malme-3M > 100 µM | SN12C > 100 µM | SK-MEL-28 > 100 µM | SNB-75 > 100 µM | RXF 393 > 100 µM | SF-539 > 100 µM | M19-MEL > 100 µM | K562 > 100 µM

O=C(O)Cc1cc(=O)[nH]c2c1C(=O)CCC2
> 100 µM: HCT-15
inactive: SW-620 > 100 µM | HOP-18 > 100 µM | SF-295 > 100 µM | HOP-92 > 100 µM | XF498 > 100 µM | EKVX > 100 µM | SK-MEL-5 > 100 µM | M14 > 100 µM | ACHN > 100 µM | SNB-19 > 100 µM | HT-29 > 100 µM | SK-MEL-2 > 100 µM | NCI-H226 > 100 µM | TK-10 > 100 µM | LXFL 529 > 100 µM | NCI-H522 > 100 µM | SF-268 > 100 µM | 786-0 > 100 µM | OVCAR-5 > 100 µM | IGROV-1 > 100 µM | UACC-257 > 100 µM | HCC 2998 > 100 µM | RPMI-8226 > 100 µM | COLO 205 > 100 µM | HL-60 > 100 µM | UO-31 > 100 µM | NCI-H23 > 100 µM | OVCAR-8 > 100 µM | SK-OV-3 > 100 µM | NCI-H460 > 100 µM | SR > 100 µM | CCRF-CEM > 100 µM | KM12 > 100 µM | KM-20L2 > 100 µM | DMS-273 > 100 µM | OVCAR-3 > 100 µM | DLD-1 > 100 µM | MOLT-4 > 100 µM | U-251 > 100 µM | Malme-3M > 100 µM | SN12C > 100 µM | SK-MEL-28 > 100 µM | RXF 393 > 100 µM | M19-MEL > 100 µM | K562 > 100 µM

[O-][S+](Cc1ccccn1)c1nc2ccccc2nc1-c1ccccc1 (configuration not stated)
inactive: HOP-18 80.4 µM | SF-295 27.9 µM | HOP-92 28.3 µM | XF498 17.5 µM | EKVX 30.7 µM | M14 36 µM | ACHN 48.1 µM | SNB-19 62.4 µM | HT-29 44.4 µM | SNB-78 21.2 µM | NCI-H226 18.9 µM | DMS-114 28.2 µM | LXFL 529 31.9 µM | SF-268 66.1 µM | 786-0 47.2 µM | IGROV-1 36 µM | UACC-257 33.1 µM | RPMI-8226 19.9 µM | COLO 205 18.8 µM | HL-60 20.8 µM | UO-31 37.7 µM | NCI-H23 34.8 µM | OVCAR-8 26.5 µM | SK-OV-3 55.7 µM | HCT-116 33.4 µM | CCRF-CEM 38.6 µM | OVCAR-4 26.9 µM | DMS-273 26.1 µM | OVCAR-3 44.9 µM | MOLT-4 38.3 µM | U-251 41.5 µM | A549 47.2 µM | Malme-3M 33.1 µM | SN12C 35.3 µM | SK-MEL-28 53.8 µM | SNB-75 26.3 µM | K562 31.3 µM

[O-][S+](Cc1cnc2ccccc2c1)c1nc2ccccc2nc1-c1cccs1 (configuration not stated)
active: NCI-H226 0.43 µM
inactive: HOP-18 17.5 µM | SF-295 25.5 µM | HOP-92 11.2 µM | XF498 4.06 µM | EKVX 6.31 µM | M14 15.1 µM | ACHN 13.6 µM | SNB-19 22.4 µM | HT-29 16.6 µM | SNB-78 20.3 µM | DMS-114 10.5 µM | LXFL 529 8.55 µM | SF-268 16.1 µM | 786-0 13.2 µM | OVCAR-5 13.5 µM | IGROV-1 16.8 µM | UACC-257 16 µM | RPMI-8226 25.4 µM | COLO 205 19.5 µM | HL-60 4.31 µM | UO-31 14.8 µM | NCI-H23 14.9 µM | OVCAR-8 17.5 µM | SK-OV-3 29.2 µM | HCT-116 10.6 µM | CCRF-CEM 5.08 µM | OVCAR-4 10.5 µM | DMS-273 13.7 µM | OVCAR-3 19.7 µM | MOLT-4 4.94 µM | U-251 18.7 µM | A549 19.7 µM | Malme-3M 19.2 µM | SN12C 14.5 µM | SK-MEL-28 16.9 µM | SNB-75 19.1 µM | SF-539 17.9 µM | K562 7.46 µM

Reference: ChEMBL document CHEMBL1201862, “PubChem BioAssay data set” (2004)
